Patent US10442804B2, “Compounds for the treatment of hepatitis B virus infection” (Gilead Sciences, Inc., priority 2017, dated 2019)
pEC50: −log10 of the molar value. Read-outs that look alike come from different tables or passages of the source.

Key:
[1] = tested on: HBV-infected NTCP-HepG2 cells, secreted HBsAg; assay: microbe, parasite or virus in culture; format: cell-based, hepatitis B virus (genotype D, AD38-derived); settings: Hepatitis B virus, 120 h, secreted HBsAg in supernatant after 5 days; geometric mean of minimum four determinations; read-out: NTCP HBsAg EC50
Method: NTCP-HepG2 Antiviral Assay for Secreted HBsAg
HepG2 cells stably expressing sodium-taurocholate cotransporting polypeptide (NTCP-HepG2) were grown in Dulbecco's Modified Eagle Medium (DMEM) without sodium pyruvate (Thermo Fisher Scientific, Waltham, Mass.) supplemented with 10% fetal bovine serum, 2 mM L-glutamine, 1% penicillin/streptomycin, and 0.25 mg/mL G-418. NTCP-HepG2 cells were infected with 4000 genome equivalent per cell of genotype D (AD38-derived) HBV in DMEM without sodium pyruvate (Thermo Fisher Scientific, Waltham, Mass.) supplemented with 2% fetal bovine serum, 2 mM L-glutamine, 1% penicillin/streptomycin, 2.5% DMSO, and 4% PEG 8000 (Promega, Madison, Wis.). After 24-hour incubation, cells were washed three times with OptiMEM (Thermo Fisher Scientific, Waltham, Mass.) and fed with fresh DMEM without sodium pyruvate (Thermo Fisher Scientific, Waltham, Mass.) supplemented with 2% fetal bovine serum, 2 mM L-glutamine, 1% penicillin/streptomycin, and 2.5% DMSO. At 4 days after infection, infected NTCP-HepG2 cells were seeded on 384-well plates pre-coated with collagen at a density of 20000 cells per well containing serially diluted compounds of the present disclosure or DMSO (0.5%) in a final volume of 80 μl of DMEM without sodium pyruvate (Thermo Fisher Scientific, Waltham, Mass.) supplemented with 2% fetal bovine serum, 2 mM L-glutamine, 1% penicillin/streptomycin, and 1% DMSO. After an incubation time of 5 days, cell culture supernatant was collected and measured for HBsAg.
Secreted HBsAg in the supernatant were measured using a multiplex chemiluminescent MSD assay (Meso Scale Discovery, Rockville, Md.) using capture and detection antibody pairs specific for HBsAg. The EC50 values were calculated from the fit of the dose-response curves to a four-parameter equation. All EC50 values represent geometric mean values of a minimum of four determinations.

MT-4 cytotoxicity assay = format: cell-based, human; settings: human
Method: Biological Example 2: MT-4 Cytotoxicity Assay
The MT-4 cell line (HTLV-1 transformed, human T lymphoblastoid cells) was obtained from the NIH AIDS Reagent program (Bethesda, Md.). MT-4 cells were maintained in RPMI-1640 media (Thermo Fisher Scientific, Waltham, Mass.) supplemented with 10% fetal bovine serum, 100 Units/mL penicillin, and 100 μg/mL streptomycin. For the MT-4 cytotoxicity assay, 0.4 μL of serially diluted solutions of certain compounds disclosed herein were added to 40 μL of cell maintenance media in 384-well black, solid bottom plate using a Biomek FX workstation (Beckman Coulter, Brea, Calif.). Two thousand cells in 35 μL were added to each well using a Biotek uFlow Workstation (Biotek, Winooski, Vt.). Each assay plate contained 10 μM puromycin (final concentration) and 0.5% DMSO in RPMI-1640 media as positive and negative controls, respectively. Assay plates were incubated for five days at 37° C. in an incubator set at 5% CO2 and 90% humidity. After five days, 22 μL of Cell Titer Glo reagent (Promega, Madison, Wis.) was added to the assay plates with a Biotek uFlow Workstation. Plates were subsequently placed on an Envision Plate Reader (Perkin Elmer, Waltham, Mass.) for five minutes before the luminescence signal was read. CC50 values were defined as the compound concentration that caused a 50% decrease in luminescence signal, and were calculated by non-linear regression using Pipeline Pilot software by applying a four parameter fit equation (Accelrys, San Diego, Calif.) and are reported in the following Table 1.

[2] = five days, Cell Titer Glo luminescence, read-out: MT-4 CC50

In the case of `COCCCOc1cc2c(cc1S(C)(=O)=O)-c1cc(=O)c(C(=O)O)cn1N1[C@@H]2CCC1(C)C` [Example 69, (R)-12-(3-methoxypropoxy)-3,3-dimethyl-11-(methylsulfonyl)-8-oxo-2,3,8,13b-tetrahydro-1H-pyrido[2,1-a]pyrrolo[1,2-c]phthalazine-7-carboxylic acid], the pEC50 [1] was 7.28 and the CC50 at 5 days (MT-4 cytotoxicity assay; [2]) was over 10 µM.
In the case of `O=C(O)c1cn2c(cc1=O)-c1cc(Cl)c(-c3cnn(C4COC4)c3)cc1[C@H]1CCC3(CC3)N12` [Example 86, (R)-11′-chloro-12′-(1-(oxetan-3-yl)-1H-pyrazol-4-yl)-8′-oxo-1′,2′,8′,13b′-tetrahydrospiro[cyclopropane-1,3′-pyrido[2,1-a]pyrrolo[1,2-c]phthalazine]-7′-carboxylic acid], the pEC50 [1] was 7.61 and the CC50 at 5 days (MT-4 cytotoxicity assay; MT-4 CC50) was over 10 µM.
Work on `COc1cc2c(cc1OCC1COC1)[C@H]1CCC(C)(C)N1n1cc(C(=O)O)c(=O)cc1-2` [Example 16, (R)-11-methoxy-3,3-dimethyl-12-(oxetan-3-ylmethoxy)-8-oxo-2,3,8,13b-tetrahydro-1H-pyrido[2,1-a]pyrrolo[1,2-c]phthalazine-7-carboxylic acid] yielded a pEC50 [1] of 8.11 and a CC50 at 5 days (MT-4 cytotoxicity assay; [2]) of over 10 µM.
`COCc1cc2c(cc1OCC13CC(C#N)(C1)C3)[C@H]1CCC3(CC3)N1n1cc(C(=O)O)c(=O)cc1-2` [Compound 107, (R)-12′-((3-cyanobicyclo[1.1.1]pentan-1-yl)methoxy)-11′-(methoxymethyl)-8′-oxo-1′,2′,8′,13b′-tetrahydrospiro[cyclopropane-1,3′-pyrido[2,1-a]pyrrolo[1,2-c]phthalazine]-7′-carboxylic acid] gave a pEC50 [1] of 8.23 and a CC50 at 5 days (MT-4 cytotoxicity assay; MT-4 CC50) of 7.8 µM.
Molecule `COCCCOc1cc2c(cc1OC(F)F)-c1cc(=O)c(C(=O)O)cn1N1[C@@H]2CCC1(C)C` (single isomer, unassigned) [Example 19] has a pEC50 [1] of 8.92 and a CC50 at 5 days (MT-4 cytotoxicity assay; [2]) of over 10 µM.
`COCCCOc1cc2c(cc1Cl)-c1cc(=O)c(C(=O)O)cn1N1CC(C)(C)CCC21` (stereo not drawn) [Example 17, 13-chloro-12-(3-methoxypropoxy)-8,8-dimethyl-2-oxo-2,7,8,9,10,10a-hexahydrodipyrido[2,1-a:1′,2′-c]phthalazine-3-carboxylic acid] gave a pEC50 [1] of 6.96 and a CC50 at 5 days (MT-4 cytotoxicity assay; [2]) of over 10 µM.
`COCCCOc1cc2c(cc1Cl)-c1cc(=O)c(C(=O)O)cn1N1[C@@H]2CC[C@@H]1C` (single isomer, unassigned) [Example 10] gave a pEC50 [1] of 8.24 and a CC50 at 5 days (MT-4 cytotoxicity assay; [2]) of over 10 µM.
`COCCCOc1cc2c(cc1Cl)-c1cc(=O)c(C(=O)O)cn1N1[C@@H]2CCC12COC(C)(C)OC2` [Example 81, (R)-11-chloro-12-(3-methoxypropoxy)-2′,2′-dimethyl-8-oxo-1,2,8,13b-tetrahydrospiro[pyrido[2,1-a]pyrrolo[1,2-c]phthalazine-3,5′-[1,3]dioxane]-7-carboxylic acid] showed a pEC50 [1] of 6.41 and a CC50 at 5 days (MT-4 cytotoxicity assay; [2]) of over 10 µM.
`COCCCOc1cc2c(cc1C1CC1)-c1cc(=O)c(C(=O)O)cn1N1[C@@H]2COCC1(C)C` [Example 101, (S)-12-cyclopropyl-13-(3-methoxypropoxy)-4,4-dimethyl-9-oxo-3,4,9,14b-tetrahydro-1H-[1,4]oxazino[3,4-a]pyrido[1,2-c]phthalazine-8-carboxylic acid] gave a pEC50 [1] of 9.15 and a CC50 at 5 days (MT-4 cytotoxicity assay; [2]) of 8.2 µM.
Molecule `COCc1cc2c(cc1OCCCOC1COC1)[C@H]1CCC(C)(C)N1n1cc(C(=O)O)c(=O)cc1-2` [Example 94, (R)-11-(methoxymethyl)-3,3-dimethyl-12-(3-(oxetan-3-yloxy)propoxy)-8-oxo-2,3,8,13b-tetrahydro-1H-pyrido[2,1-a]pyrrolo[1,2-c]phthalazine-7-carboxylic acid] has a pEC50 [1] of 8.22 and a CC50 at 5 days (MT-4 cytotoxicity assay; [2]) of over 10 µM.
Molecule `COc1cc2c(cc1OCC1CC(=O)C1)[C@H]1CCC(C)(C)N1n1cc(C(=O)O)c(=O)cc1-2` [Example 37] has a pEC50 [1] of 8.40 and a CC50 at 5 days (MT-4 cytotoxicity assay; [2]) of over 10 µM.
`CC1(C)CC[C@@H]2c3cc(C#Cc4ccc(N)nc4)c(OC(F)F)cc3-c3cc(=O)c(C(=O)O)cn3N21` [Compound 106, (R)-12-((6-aminopyridin-3-yl)ethynyl)-11-(difluoromethoxy)-3,3-dimethyl-8-oxo-2,3,8,13b-tetrahydro-1H-pyrido[2,1-a]pyrrolo[1,2-c]phthalazine-7-carboxylic acid] gave a pEC50 [1] of 9.43 and a CC50 at 5 days (MT-4 cytotoxicity assay; [2]) of 7.5 µM.
For `COC(C)(C)C#Cc1cc2c(cc1Cl)-c1cc(=O)c(C(=O)O)cn1N1[C@@H]2CCC12CC2` [Example 85, (R)-11′-chloro-12′-(3-methoxy-3-methylbut-1-yn-1-yl)-8′-oxo-1′,2′,8′,13b′-tetrahydrospiro[cyclopropane-1,3′-pyrido[2,1-a]pyrrolo[1,2-c]phthalazine]-7′-carboxylic acid], the pEC50 [1] was 8.39 and the CC50 at 5 days (MT-4 cytotoxicity assay; MT-4 CC50) was over 10 µM.
Work on `COCCCOc1cc2c(cc1OC)-c1cc(=O)c(C(=O)O)cn1N1[C@@H]2CCCC1(C)C` (single isomer, unassigned) [Example 52] yielded a pEC50 [1] of 9.04 and a CC50 at 5 days (MT-4 cytotoxicity assay; [2]) of over 10 µM.
`CCOCCCOc1cc2c(cc1OC)-c1cc(=O)c(C(=O)O)cn1N1[C@@H]2CCC1(C)C` [Example 62, (R)-12-(3-ethoxypropoxy)-11-methoxy-3,3-dimethyl-8-oxo-2,3,8,13b-tetrahydro-1H-pyrido[2,1-a]pyrrolo[1,2-c]phthalazine-7-carboxylic acid] gave a pEC50 [1] of 9.17 and a CC50 at 5 days (MT-4 cytotoxicity assay; [2]) of over 10 µM.
For `COCc1cc2c(cc1OCC13CC(C#N)(C1)C3)[C@H]1CCC(C)(C)N1n1cc(C(=O)O)c(=O)cc1-2` [Example 74, (R)-12-((3-cyanobicyclo[1.1.1]pentan-1-yl)methoxy)-11-(methoxymethyl)-3,3-dimethyl-8-oxo-2,3,8,13b-tetrahydro-1H-pyrido[2,1-a]pyrrolo[1,2-c]phthalazine-7-carboxylic acid], the pEC50 [1] was 8.42 and the CC50 at 5 days (MT-4 cytotoxicity assay; [2]) was over 10 µM.
Work on `COCCOCc1cc2c(cc1OC(F)F)-c1cc(=O)c(C(=O)O)cn1N1[C@@H]2CCC1(C)C` [Compound 108, (R)-11-(difluoromethoxy)-12-((2-methoxyethoxy)methyl)-3,3-dimethyl-8-oxo-2,3,8,13b-tetrahydro-1H-pyrido[2,1-a]pyrrolo[1,2-c]phthalazine-7-carboxylic acid] yielded a pEC50 [1] of 7.77 and a CC50 at 5 days (MT-4 cytotoxicity assay; [2]) of over 10 µM.
For `COc1cc2c(cc1OCCCOC(C)(C)C)[C@H]1CCC(C)(C)N1n1cc(C(=O)O)c(=O)cc1-2` [Example 65, (R)-12-(3-(tert-butoxy)propoxy)-11-methoxy-3,3-dimethyl-8-oxo-2,3,8,13b-tetrahydro-1H-pyrido[2,1-a]pyrrolo[1,2-c]phthalazine-7-carboxylic acid], the pEC50 [1] was 9.39 and the CC50 at 5 days (MT-4 cytotoxicity assay; [2]) was over 10 µM.
Molecule `COCCCOc1c(OC)cc2c(c1Br)[C@H]1CCC(C)(C)N1n1cc(C(=O)O)c(=O)cc1-2` [Example 40, (R)-13-bromo-11-methoxy-12-(3-methoxypropoxy)-3,3-dimethyl-8-oxo-2,3,8,13b-tetrahydro-1H-pyrido[2,1-a]pyrrolo[1,2-c]phthalazine-7-carboxylic acid] has a pEC50 [1] of 6.44 and a CC50 at 5 days (MT-4 cytotoxicity assay; [2]) of 8.8 µM.
For `COCCCOc1cc2c(cc1OCC(F)F)-c1cc(=O)c(C(=O)O)cn1N1[C@@H]2CCC1(C)C` [Example 27, (R)-11-(2,2-difluoroethoxy)-12-(3-methoxypropoxy)-3,3-dimethyl-8-oxo-2,3,8,13b-tetrahydro-1H-pyrido[2,1-a]pyrrolo[1,2-c]phthalazine-7-carboxylic acid], the pEC50 [1] was 8.43 and the CC50 at 5 days (MT-4 cytotoxicity assay; [2]) was over 10 µM.
`[2H]C([2H])(OC)C([2H])([2H])C([2H])([2H])Oc1cc2c(cc1COC)-c1cc(=O)c(C(=O)O)cn1N1[C@@H]2CCC1(C)C` [Compound 118, (R)-11-(methoxymethyl)-12-(3-methoxypropoxy-1,1,2,2,3,3-d6)-3,3-dimethyl-8-oxo-2,3,8,13b-tetrahydro-1H-pyrido[2,1-a]pyrrolo[1,2-c]phthalazine-7-carboxylic acid] gave a pEC50 [1] of 8.39 and a CC50 at 5 days (MT-4 cytotoxicity assay; [2]) of over 10 µM.
